ChEMBL document CHEMBL1133201, “Synthesis and cytotoxic activity of acetogenin analogues” (Bioorg Med Chem Lett, 2000)

The molecules below were run on L1210 (assay: In vitro inhibitory activity was tested against L1210 leukemia cells). Settings: Mus musculus.
Format: functional, cell-based

SMILES	IC50 [µM]
CC(=O)CC1C[C@@H](CCCCCCCC#C[C@@H](O)COCCOC[C@@H](O)N2CCCCC2)OC1=O (some centres undefined)	28.7
CCCCCCCCCC[C@@H](O)[C@@H]1CC[C@@H]([C@@H]2CC[C@@H]([C@H](O)CCCCCCCCCC(O)CC3=CC(C)OC3=O)O2)O1 (some centres undefined) [BULLATACIN]	0.0004
CC(=O)CC1C[C@@H](CCCCCCCC#C[C@@H](O)COCCOC[C@@H](O)OC2CC[C@]3(C)C(=CC[C@@H]4[C@H]5CC[C@@H]([C@@H](C)CCCC(C)C)[C@]5(C)CC[C@H]43)C2)OC1=O (some centres undefined)	2.8
COc1ccc([C@@H](O)COCCOC[C@@H](O)C#CCCCCCCC[C@@H]2CC(CC(C)=O)C(=O)O2)cc1 (some centres undefined)	32
COc1ccc([C@H](O)COCCOC[C@H](O)C#CCCCCCCC[C@@H]2CC(CC(C)=O)C(=O)O2)cc1 (some centres undefined)	> 10
CCCCCCCCCC[C@H](O)COCCOC[C@H](O)C#CCCCCCCC[C@@H]1CC(CC(C)=O)C(=O)O1 (some centres undefined)	3.5
CCCCCCCCCC[C@@H](O)COCCOC[C@@H](O)C#CCCCCCCC[C@@H]1CC(CC(C)=O)C(=O)O1 (some centres undefined)	1
CCCCCCCCCC[C@H](O)[C@H]1CC[C@H]([C@H]2CC[C@H]([C@H](O)CCCCCCCCCC[C@@H]3CC(CC(C)=O)C(=O)O3)O2)O1 (some centres undefined) [BULLATACINONE]	0.016
CCCCN(CCCC)[C@@H](O)COCCOC[C@@H](O)C#CCCCCCCC[C@@H]1CC(CC(C)=O)C(=O)O1 (some centres undefined)	2.5
CC(=O)CC1C[C@@H](CCCCCCCC#C[C@@H](O)COCCOC[C@@H](O)c2ccc(C(F)(F)F)cc2)OC1=O (some centres undefined)	3.3
CCCCCCCCCCCC[C@@H](O)[C@H]1CC[C@H]([C@H](O)CCCC[C@H](O)CCCCC[C@@H](O)CC2=CC(C)OC2=O)O1 (some centres undefined) [ANNONACIN]	0.042
CC(=O)CC1C[C@@H](CCCCCCCC#C[C@H](O)COCCOC[C@H](O)c2ccc3ccccc3c2)OC1=O (some centres undefined)	3
CC(=O)CC1C[C@@H](CCCCCCCC#C[C@H](O)COCCOC[C@H](O)c2ccccc2)OC1=O (some centres undefined)	21.6
CC(=O)CC1C[C@@H](CCCCCCCC#C[C@@H](O)COCCOC[C@@H](O)c2ccccc2)OC1=O (some centres undefined)	19.8
